# Where two headings read alike, the source gives them in different places.
# Key:
# Test in all cases: biochemical
# BMPR2 = molecular target: T1, BMPR2 (Homo sapiens, UniProt Q13873)
# T1 sequence (Q13873 1-1038): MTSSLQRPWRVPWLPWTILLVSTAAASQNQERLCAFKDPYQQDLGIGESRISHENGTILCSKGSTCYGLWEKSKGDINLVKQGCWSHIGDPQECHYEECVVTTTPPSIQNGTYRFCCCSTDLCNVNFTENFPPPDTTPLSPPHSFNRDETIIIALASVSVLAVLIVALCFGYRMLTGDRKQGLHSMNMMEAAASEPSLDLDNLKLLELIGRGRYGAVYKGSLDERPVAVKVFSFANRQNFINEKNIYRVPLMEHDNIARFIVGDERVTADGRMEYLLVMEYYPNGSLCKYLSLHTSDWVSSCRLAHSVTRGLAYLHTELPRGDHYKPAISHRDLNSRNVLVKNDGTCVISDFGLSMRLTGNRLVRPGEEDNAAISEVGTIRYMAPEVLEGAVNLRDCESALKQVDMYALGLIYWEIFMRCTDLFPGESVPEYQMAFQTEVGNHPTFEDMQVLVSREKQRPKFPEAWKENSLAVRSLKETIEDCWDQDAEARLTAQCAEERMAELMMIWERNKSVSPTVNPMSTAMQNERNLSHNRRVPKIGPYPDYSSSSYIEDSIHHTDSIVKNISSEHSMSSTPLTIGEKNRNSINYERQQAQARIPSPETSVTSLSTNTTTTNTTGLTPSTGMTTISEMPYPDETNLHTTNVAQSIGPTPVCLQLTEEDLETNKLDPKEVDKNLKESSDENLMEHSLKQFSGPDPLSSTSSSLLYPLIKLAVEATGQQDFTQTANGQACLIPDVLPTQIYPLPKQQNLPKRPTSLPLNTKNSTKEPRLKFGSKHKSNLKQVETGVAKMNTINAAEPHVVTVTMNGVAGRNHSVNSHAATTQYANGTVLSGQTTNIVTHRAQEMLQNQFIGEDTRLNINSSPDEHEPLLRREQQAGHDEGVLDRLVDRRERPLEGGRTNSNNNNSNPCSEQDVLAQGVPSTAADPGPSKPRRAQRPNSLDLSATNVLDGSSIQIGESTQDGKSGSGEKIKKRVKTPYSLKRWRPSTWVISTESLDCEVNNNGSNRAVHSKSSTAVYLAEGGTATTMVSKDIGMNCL
# CDK2 = CDK2 (Homo sapiens, UniProt P24941)
# FECH = molecular target: T2, FECH (Homo sapiens, UniProt P22830)
# T2 sequence (P22830 1-423): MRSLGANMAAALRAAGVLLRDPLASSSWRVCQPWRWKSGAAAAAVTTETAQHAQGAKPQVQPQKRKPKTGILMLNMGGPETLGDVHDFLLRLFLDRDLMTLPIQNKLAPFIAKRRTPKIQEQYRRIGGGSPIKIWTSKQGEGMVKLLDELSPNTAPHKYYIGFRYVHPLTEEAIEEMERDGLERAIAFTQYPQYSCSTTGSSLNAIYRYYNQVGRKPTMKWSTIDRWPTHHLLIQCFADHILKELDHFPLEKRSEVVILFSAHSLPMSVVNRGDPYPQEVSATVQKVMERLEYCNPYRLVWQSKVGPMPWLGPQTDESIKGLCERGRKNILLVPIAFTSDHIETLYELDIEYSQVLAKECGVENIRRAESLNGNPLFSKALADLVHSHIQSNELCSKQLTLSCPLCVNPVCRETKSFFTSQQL
# LOK = LOK (Homo sapiens, UniProt O94804)
# MAP2K4 = molecular target: T3, MAP2K4 (Homo sapiens, UniProt P45985)
# T3 sequence (P45985 1-399): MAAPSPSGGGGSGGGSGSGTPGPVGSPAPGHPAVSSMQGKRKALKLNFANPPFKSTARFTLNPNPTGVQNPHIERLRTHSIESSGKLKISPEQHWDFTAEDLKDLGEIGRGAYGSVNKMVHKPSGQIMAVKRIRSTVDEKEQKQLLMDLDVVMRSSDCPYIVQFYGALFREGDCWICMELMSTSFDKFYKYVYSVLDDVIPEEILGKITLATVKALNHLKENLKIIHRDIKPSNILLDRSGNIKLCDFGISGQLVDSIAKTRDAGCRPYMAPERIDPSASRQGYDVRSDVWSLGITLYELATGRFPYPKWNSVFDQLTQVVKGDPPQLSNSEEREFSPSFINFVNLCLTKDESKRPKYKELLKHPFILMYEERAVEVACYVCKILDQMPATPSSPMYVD
# TTK = molecular target: T4, TTK (Homo sapiens, UniProt P33981)
# T4 sequence (P33981 1-857): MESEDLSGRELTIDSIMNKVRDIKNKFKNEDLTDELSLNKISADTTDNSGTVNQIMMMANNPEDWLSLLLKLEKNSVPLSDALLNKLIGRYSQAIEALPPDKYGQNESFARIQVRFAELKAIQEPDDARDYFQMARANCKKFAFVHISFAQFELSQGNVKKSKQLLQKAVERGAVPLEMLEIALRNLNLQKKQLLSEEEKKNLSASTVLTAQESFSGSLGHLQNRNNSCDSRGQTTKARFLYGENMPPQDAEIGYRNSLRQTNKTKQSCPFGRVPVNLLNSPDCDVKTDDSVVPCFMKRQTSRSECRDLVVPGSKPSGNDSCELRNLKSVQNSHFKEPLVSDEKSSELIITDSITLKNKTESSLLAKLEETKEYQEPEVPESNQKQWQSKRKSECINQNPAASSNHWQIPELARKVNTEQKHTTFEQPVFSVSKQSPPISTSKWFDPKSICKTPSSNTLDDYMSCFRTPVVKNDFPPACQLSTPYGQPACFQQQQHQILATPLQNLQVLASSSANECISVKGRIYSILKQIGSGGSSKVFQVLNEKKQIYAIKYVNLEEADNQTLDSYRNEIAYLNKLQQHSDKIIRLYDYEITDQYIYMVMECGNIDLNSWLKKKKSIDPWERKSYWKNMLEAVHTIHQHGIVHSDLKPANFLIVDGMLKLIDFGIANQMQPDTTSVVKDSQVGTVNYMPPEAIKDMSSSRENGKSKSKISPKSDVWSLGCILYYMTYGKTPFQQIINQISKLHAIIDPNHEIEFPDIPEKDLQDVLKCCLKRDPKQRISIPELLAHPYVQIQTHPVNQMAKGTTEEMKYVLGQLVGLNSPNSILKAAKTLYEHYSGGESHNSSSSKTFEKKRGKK
# LOK, sequence (O94804 whole entry): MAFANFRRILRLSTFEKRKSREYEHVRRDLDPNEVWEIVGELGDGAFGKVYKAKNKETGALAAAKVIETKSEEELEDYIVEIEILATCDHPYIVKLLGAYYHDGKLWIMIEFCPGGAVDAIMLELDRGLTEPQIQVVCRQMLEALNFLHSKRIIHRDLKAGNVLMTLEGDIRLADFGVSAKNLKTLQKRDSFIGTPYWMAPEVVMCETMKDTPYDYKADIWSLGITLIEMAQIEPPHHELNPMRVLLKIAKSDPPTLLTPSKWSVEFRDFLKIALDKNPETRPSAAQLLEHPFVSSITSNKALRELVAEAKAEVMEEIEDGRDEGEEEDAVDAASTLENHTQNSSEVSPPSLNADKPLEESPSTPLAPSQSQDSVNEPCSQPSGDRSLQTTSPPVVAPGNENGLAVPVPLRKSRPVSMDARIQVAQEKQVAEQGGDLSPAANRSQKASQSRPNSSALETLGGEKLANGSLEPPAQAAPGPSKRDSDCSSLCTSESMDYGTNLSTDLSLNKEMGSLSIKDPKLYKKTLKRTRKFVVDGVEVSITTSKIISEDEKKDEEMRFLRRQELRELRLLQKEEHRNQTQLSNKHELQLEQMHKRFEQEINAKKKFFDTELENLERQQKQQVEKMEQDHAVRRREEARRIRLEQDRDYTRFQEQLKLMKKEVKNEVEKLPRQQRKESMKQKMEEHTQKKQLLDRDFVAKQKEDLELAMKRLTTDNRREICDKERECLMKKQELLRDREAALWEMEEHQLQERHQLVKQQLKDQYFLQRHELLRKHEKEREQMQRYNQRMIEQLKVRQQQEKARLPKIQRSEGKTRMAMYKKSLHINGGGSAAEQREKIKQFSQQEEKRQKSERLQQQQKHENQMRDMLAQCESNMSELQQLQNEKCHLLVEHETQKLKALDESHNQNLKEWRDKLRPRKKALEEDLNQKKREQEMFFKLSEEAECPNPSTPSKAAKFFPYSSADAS
smiles,measurement,setting,value
"CNc1ncc2cc(-c3cc(Cl)ccc3Br)c(=O)n(CCCCN)c2n1 [compound 10, 8-(4-Aminobutyl)-6-(2-bromo-5-chlorophenyl)-2-(methylamino)pyrido[2,3-d]pyrimidin-7(8H)-one]",ΔTm at 10 µM,BMPR2; read-out: dTm 10,0 °C
same,ΔTm at 10 µM,CDK2; read-out: dTm 10,0.6 °C
same,ΔTm at 10 µM,FECH; read-out: dTm 10,-1.7 °C
same,ΔTm at 10 µM,LOK; read-out: dTm 10,3.5 °C
same,ΔTm at 10 µM,MAP2K4; read-out: dTm 10,3 °C
same,ΔTm at 10 µM,TTK; read-out: dTm 10,0.5 °C
"CNc1ncc2cc(-c3cc(Cl)ccc3Cl)c(=O)n(CCCCN)c2n1 [compound 8, 8-(4-Aminobutyl)-6-(2,5-dichlorophenyl)-2-(methylamino)pyrido[2,3-d]pyrimidin-7(8H)-one]",ΔTm at 10 µM,BMPR2; read-out: dTm 8,0.2 °C
same,ΔTm at 10 µM,CDK2; read-out: dTm 8,0.6 °C
same,ΔTm at 10 µM,FECH; read-out: dTm 8,-1.7 °C
same,ΔTm at 10 µM,LOK; read-out: dTm 8,2.5 °C
same,ΔTm at 10 µM,MAP2K4; read-out: dTm 8,2.7 °C
same,ΔTm at 10 µM,TTK; read-out: dTm 8,0.5 °C
"CNc1ncc2cc(-c3cc(C(F)(F)F)ccc3Cl)c(=O)n(CCCCN)c2n1 [compound 9, 8-(4-Aminobutyl)-6-(2-chloro-5-(trifluoromethyl)phenyl)-2-(methylamino)pyrido[2,3-d]pyrimidin-7(8H)-one]",ΔTm at 10 µM,BMPR2; read-out: dTm 9,0.1 °C
same,ΔTm at 10 µM,CDK2; read-out: dTm 9,0.3 °C
same,ΔTm at 10 µM,FECH; read-out: dTm 9,-1.7 °C
same,ΔTm at 10 µM,LOK; read-out: dTm 9,1.6 °C
same,ΔTm at 10 µM,MAP2K4; read-out: dTm 9,2.3 °C
same,ΔTm at 10 µM,TTK; read-out: dTm 9,-0.5 °C
"CNc1ncc2cc(-c3cc(Br)ccc3Br)c(=O)n(CCCCN)c2n1 [compound 11, 8-(4-Aminobutyl)-6-(2,5-dibromophenyl)-2-(methylamino)pyrido[2,3-d]pyrimidin-7(8H)-one]",ΔTm at 10 µM,BMPR2; read-out: dTm 11,0 °C
same,ΔTm at 10 µM,CDK2; read-out: dTm 11,0.7 °C
same,ΔTm at 10 µM,FECH; read-out: dTm 11,-1.6 °C
same,ΔTm at 10 µM,LOK; read-out: dTm 11,3.6 °C
same,ΔTm at 10 µM,MAP2K4; read-out: dTm 11,3 °C
same,ΔTm at 10 µM,TTK; read-out: dTm 11,0.2 °C
"CNc1ncc2cc(-c3cc(F)c(-c4cccc(C)n4)cc3F)c(=O)n(CCCCN)c2n1 [compound 12, 8-(4-Aminobutyl)-6-(2,5-difluoro-4-(6-methylpyridin-2-yl)phenyl)-2-(methylamino)pyrido[2,3-d]pyrimidin-7(8H)-one]",ΔTm at 10 µM,BMPR2; read-out: dTm 12,-0.2 °C
same,ΔTm at 10 µM,CDK2; read-out: dTm 12,1.1 °C
same,ΔTm at 10 µM,FECH; read-out: dTm 12,-0.6 °C
same,ΔTm at 10 µM,LOK; read-out: dTm 12,-0.4 °C
same,ΔTm at 10 µM,MAP2K4; read-out: dTm 12,5.4 °C
same,ΔTm at 10 µM,TTK; read-out: dTm 12,-0.7 °C

# From paper doi:10.1101/2023.03.24.534094v2 (biorxiv, 2023)
